Laboratory results as given in patent publication US9340590B2 (priority 2011, dated 2016).
pIC50: −log10 of the molar value. Where two headings read alike, the source gives them in different places. Positions of bridges follow the written chain, without caps; N, C: chain ends. Non-standard residues stand in square brackets, D forms with d. Residues, ends and D or L forms follow the SMILES beside them. *: point of attachment. 1Nal = N[C@@H](Cc1cccc2ccccc12)C(=O)O; Pent4ynoyl = C#CCCC(=O)*; Nva = CCC[C@H](N)C(=O)O

Assays:
Test in all cases: cell-based
hNav1.3 = hNav1.3 (Homo sapiens, UniProt Q9NY46); conditions: IonWorks Quattro, read-out: IWQ Use Nav1.3
hNav1.5 = hNav1.5 (Homo sapiens, UniProt Q14524)
hNav1.7 = hNav1.7 (Homo sapiens, UniProt Q15858); format: cell-based; conditions: IonWorks Quattro, read-out: IWQ Use Nav1.7
[1] = clamped to −110 mV, depolarized to −10 mV, 5 min after compound, n=2
[2] = IonWorks Quattro, clamped to −110 mV, depolarized to −10 mV, 5 min after compound, n=2, read-out: IWQ Use Nav1.5
[3] = IonWorks Quattro, use-dependent block, hNav1.5, read-out: IWQ Use Nav1.5

hNav1.3, sequence (Q9NY46 whole entry, looked up): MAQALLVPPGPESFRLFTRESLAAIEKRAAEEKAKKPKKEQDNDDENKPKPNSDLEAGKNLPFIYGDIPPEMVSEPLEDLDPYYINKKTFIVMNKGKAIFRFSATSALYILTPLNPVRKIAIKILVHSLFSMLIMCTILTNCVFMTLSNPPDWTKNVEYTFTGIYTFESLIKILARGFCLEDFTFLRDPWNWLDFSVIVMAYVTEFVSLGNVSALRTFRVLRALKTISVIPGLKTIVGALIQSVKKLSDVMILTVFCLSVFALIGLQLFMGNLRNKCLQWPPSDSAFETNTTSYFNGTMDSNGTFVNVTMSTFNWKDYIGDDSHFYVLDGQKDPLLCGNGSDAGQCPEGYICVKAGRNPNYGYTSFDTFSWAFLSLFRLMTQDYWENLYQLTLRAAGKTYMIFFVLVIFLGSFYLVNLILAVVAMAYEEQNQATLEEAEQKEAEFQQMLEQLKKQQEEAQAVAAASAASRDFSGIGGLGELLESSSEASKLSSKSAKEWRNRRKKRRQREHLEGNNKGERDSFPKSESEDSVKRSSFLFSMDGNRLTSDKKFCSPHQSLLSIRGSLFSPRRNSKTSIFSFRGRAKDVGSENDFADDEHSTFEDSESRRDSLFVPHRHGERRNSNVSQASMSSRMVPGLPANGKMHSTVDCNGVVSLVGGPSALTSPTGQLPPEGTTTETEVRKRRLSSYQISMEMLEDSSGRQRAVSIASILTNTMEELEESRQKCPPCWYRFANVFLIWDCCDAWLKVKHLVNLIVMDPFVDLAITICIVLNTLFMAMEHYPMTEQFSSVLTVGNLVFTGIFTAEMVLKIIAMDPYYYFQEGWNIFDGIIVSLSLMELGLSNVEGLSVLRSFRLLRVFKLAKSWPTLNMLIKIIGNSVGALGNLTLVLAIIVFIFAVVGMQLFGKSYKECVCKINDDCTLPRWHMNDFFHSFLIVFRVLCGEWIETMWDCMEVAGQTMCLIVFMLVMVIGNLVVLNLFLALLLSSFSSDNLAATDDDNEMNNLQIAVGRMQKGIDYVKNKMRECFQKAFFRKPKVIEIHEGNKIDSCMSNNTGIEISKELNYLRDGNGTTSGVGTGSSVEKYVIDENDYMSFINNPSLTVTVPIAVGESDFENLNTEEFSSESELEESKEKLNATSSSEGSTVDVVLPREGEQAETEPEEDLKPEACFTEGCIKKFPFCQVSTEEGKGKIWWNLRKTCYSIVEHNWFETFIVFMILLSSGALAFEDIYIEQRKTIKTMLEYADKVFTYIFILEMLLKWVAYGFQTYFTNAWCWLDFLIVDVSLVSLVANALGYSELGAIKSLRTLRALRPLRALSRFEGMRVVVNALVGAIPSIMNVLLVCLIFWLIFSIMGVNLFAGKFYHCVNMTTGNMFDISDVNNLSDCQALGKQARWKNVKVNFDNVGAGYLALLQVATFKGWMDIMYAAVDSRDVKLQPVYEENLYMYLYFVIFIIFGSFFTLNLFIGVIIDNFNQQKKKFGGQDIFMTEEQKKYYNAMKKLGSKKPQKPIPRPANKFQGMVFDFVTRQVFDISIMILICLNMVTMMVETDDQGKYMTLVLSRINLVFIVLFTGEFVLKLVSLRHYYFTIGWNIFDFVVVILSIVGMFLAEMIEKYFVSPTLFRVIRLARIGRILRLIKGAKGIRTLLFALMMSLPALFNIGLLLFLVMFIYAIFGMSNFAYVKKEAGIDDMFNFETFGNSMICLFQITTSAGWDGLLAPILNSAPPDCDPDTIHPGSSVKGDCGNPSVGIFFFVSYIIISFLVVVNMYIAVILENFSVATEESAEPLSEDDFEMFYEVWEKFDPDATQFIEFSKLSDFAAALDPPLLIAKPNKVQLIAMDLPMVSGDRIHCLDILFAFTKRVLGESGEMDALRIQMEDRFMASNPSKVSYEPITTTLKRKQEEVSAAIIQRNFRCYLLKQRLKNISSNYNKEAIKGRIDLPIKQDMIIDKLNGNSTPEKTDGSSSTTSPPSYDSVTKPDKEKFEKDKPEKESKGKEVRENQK
hNav1.5, sequence (Q14524 whole entry, looked up): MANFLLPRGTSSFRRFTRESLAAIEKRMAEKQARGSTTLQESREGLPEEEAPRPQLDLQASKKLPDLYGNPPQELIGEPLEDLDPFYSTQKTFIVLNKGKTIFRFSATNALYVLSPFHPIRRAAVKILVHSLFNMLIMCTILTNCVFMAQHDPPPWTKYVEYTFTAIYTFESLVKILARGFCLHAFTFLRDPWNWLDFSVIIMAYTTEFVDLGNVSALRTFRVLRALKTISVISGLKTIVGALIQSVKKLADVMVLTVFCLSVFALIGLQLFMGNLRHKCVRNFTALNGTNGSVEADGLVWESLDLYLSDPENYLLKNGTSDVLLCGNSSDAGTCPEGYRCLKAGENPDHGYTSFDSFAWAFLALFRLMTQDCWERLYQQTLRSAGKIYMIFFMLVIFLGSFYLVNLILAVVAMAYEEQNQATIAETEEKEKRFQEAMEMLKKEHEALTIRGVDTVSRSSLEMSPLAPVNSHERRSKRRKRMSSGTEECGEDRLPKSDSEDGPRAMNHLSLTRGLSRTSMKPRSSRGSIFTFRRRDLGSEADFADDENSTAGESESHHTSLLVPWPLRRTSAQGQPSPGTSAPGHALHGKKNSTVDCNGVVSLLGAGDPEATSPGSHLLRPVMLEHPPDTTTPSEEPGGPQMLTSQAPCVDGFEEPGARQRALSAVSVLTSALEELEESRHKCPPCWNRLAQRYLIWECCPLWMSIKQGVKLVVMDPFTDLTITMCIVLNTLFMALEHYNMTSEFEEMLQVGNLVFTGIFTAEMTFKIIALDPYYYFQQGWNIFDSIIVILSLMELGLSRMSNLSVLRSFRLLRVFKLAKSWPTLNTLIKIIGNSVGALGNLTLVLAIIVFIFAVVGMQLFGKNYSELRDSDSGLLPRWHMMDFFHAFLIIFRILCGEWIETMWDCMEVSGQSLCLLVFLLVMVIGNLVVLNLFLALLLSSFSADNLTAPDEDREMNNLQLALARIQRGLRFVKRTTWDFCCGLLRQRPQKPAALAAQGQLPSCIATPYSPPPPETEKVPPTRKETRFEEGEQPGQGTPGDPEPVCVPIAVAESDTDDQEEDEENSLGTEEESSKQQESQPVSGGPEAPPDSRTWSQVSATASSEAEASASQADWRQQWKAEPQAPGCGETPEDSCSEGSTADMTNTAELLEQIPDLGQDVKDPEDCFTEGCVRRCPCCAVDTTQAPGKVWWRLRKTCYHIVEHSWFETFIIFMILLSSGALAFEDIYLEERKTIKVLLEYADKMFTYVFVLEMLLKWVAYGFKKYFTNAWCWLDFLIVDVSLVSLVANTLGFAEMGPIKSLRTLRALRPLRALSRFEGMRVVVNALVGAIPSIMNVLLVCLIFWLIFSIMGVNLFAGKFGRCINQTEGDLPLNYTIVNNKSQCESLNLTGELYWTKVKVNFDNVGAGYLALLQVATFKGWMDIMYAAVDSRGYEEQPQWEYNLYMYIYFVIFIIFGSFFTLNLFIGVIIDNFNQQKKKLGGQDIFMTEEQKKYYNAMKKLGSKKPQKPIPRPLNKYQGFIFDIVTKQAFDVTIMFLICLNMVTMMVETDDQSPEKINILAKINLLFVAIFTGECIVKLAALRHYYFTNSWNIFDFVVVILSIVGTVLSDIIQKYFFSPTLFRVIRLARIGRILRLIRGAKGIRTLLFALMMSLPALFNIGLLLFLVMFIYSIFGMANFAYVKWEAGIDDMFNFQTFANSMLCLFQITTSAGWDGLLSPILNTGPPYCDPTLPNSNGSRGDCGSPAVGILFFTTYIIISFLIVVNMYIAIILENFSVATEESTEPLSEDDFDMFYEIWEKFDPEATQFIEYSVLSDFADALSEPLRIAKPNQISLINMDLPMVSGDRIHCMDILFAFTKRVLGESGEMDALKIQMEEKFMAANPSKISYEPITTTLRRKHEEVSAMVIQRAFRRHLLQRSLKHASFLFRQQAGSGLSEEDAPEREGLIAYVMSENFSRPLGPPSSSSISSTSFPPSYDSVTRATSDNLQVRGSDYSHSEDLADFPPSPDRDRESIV

Which results are given for CC[C@H](C)[C@@H]1NC(=O)[C@@H]2CSSC[C@@H]3NC(=O)[C@H](C(C)C)NC(=O)[C@H](CC(C)C)NC(=O)[C@H](CC(N)=O)NC(=O)[C@@H]4CCCN4C(=O)[C@H](CCCNC(=N)N)NC(=O)[C@H](CSSC[C@H](NC(=O)[C@@H](N)CC(=O)O)C(=O)N[C@@H](CC(C)C)C(=O)NCC(=O)N[C@@H](Cc4ccccc4)C(=O)N[C@@H](CCSC)C(=O)N[C@@H](CCCNC(=N)N)C(=O)N[C@@H](CCCCN)C(=O)N2)NC(=O)[C@H](CSSC[C@@H](C(=O)N[C@@H](CCCCN)C(=O)N[C@@H](Cc2ccc(O)cc2)C(=O)N[C@H](C(=O)N[C@@H](Cc2ccccc2)C(N)=O)C(C)C)NC(=O)[C@H](Cc2c[nH]c4ccccc24)NC(=O)[C@H](CCCCN)NC(=O)[C@H](Cc2c[nH]cn2)NC(=O)[C@H]([C@@H](C)O)NC(=O)[C@H](CCC(=O)O)NC(=O)[C@H](CO)NC3=O)NC(=O)[C@H](CCCCN)NC(=O)[C@H](CC(=O)O)NC(=O)[C@H](CC(N)=O)NC(=O)[C@H](CC(=O)O)NC(=O)[C@@H]2CCCN2C1=O [compound 151] (H-DCLGFMRKCIPDNDKCCRPNLVCSETHKWCKYVF-NH2; disulfide 2-17, 9-23, 16-30)?
pIC50 (hNav1.3; Use): 5.93; pIC50 (hNav1.5; IonWorks Quattro, Use, read-out: IWQ Use Nav1.5): 4.85; pIC50 (hNav1.7; Use): 6.15

Which results are given for CC[C@H](C)[C@@H]1NC(=O)[C@@H]2CSSC[C@@H]3NC(=O)[C@H](C(C)C)NC(=O)[C@H](CC(C)C)NC(=O)[C@H](CC(N)=O)NC(=O)[C@@H]4CCCN4C(=O)[C@H](CCCNC(=N)N)NC(=O)[C@H](CSSC[C@H](NC(=O)[C@@H](N)Cc4c[nH]c5ccccc45)C(=O)N[C@@H](CC(C)C)C(=O)NCC(=O)N[C@@H](Cc4ccccc4)C(=O)N[C@@H](CCSC)C(=O)N[C@@H](CCCNC(=N)N)C(=O)N[C@@H](CCCCN)C(=O)N2)NC(=O)[C@H](CSSC[C@@H](C(=O)N[C@@H](CCCCN)C(=O)N[C@@H](Cc2ccc(O)cc2)C(=O)N[C@H](C(=O)N[C@@H](Cc2ccccc2)C(N)=O)C(C)C)NC(=O)[C@H](Cc2c[nH]c4ccccc24)NC(=O)[C@H](CCCCN)NC(=O)[C@H](Cc2cnc[nH]2)NC(=O)[C@H]([C@@H](C)O)NC(=O)[C@H](CCCNC(=N)N)NC(=O)[C@H](CO)NC3=O)NC(=O)[C@H](CCCCN)NC(=O)[C@H](CC(=O)O)NC(=O)[C@H](CC(N)=O)NC(=O)[C@H](CC(=O)O)NC(=O)[C@@H]2CCCN2C1=O [SEQ ID NO: 81] (H-WCLGFMRKCIPDNDKCCRPNLVCSRTHKWCKYVF-NH2; disulfide 2-17, 9-23, 16-30)?
pIC50 (hNav1.3; [1]): 7.00; pIC50 (hNav1.5; IWQ Use Nav1.5): 5.06; pIC50 (hNav1.7; [1]): 7.30

CC[C@H](C)[C@@H]1NC(=O)[C@@H]2CSSC[C@@H]3NC(=O)[C@H](C(C)C)NC(=O)[C@H](CC(C)C)NC(=O)[C@H](CC(N)=O)NC(=O)[C@@H]4CCCN4C(=O)[C@H](CCCNC(=N)N)NC(=O)[C@H](CSSC[C@H](NC(=O)[C@@H](N)CC(=O)O)C(=O)N[C@@H](CC(C)C)C(=O)NCC(=O)N[C@@H](Cc4ccccc4)C(=O)NCC(=O)N[C@@H](CCCNC(=N)N)C(=O)N[C@@H](CCCCN)C(=O)N2)NC(=O)[C@H](CSSC[C@@H](C(=O)N[C@@H](CCCCN)C(=O)N[C@@H](Cc2ccc(O)cc2)C(=O)N[C@H](C(=O)N[C@@H](Cc2ccccc2)C(N)=O)C(C)C)NC(=O)[C@H](Cc2c[nH]c4ccccc24)NC(=O)[C@H](CCCCN)NC(=O)[C@H](Cc2c[nH]cn2)NC(=O)[C@H]([C@@H](C)O)NC(=O)[C@H](CCCNC(=N)N)NC(=O)[C@H](CO)NC3=O)NC(=O)[C@H](CCCCN)NC(=O)[C@H](CC(=O)O)NC(=O)[C@H](CC(N)=O)NC(=O)[C@H](CC(=O)O)NC(=O)[C@@H]2CCCN2C1=O [SEQ ID NO: 280] (H-DCLGFGRKCIPDNDKCCRPNLVCSRTHKWCKYVF-NH2; disulfide 2-17, 9-23, 16-30) was tested. Which pIC50 (hNav1.3; [1]) did it give?
The pIC50 was 6.85.

What about the pIC50 (hNav1.5; [2]) of the same molecule?
Its pIC50 is 5.09.

And the pIC50 (hNav1.7; [1])?
Its pIC50 is 6.74.

With CC[C@H](C)[C@@H]1NC(=O)[C@@H]2CSSC[C@@H]3NC(=O)[C@H](C(C)C)NC(=O)[C@H](CC(C)C)NC(=O)[C@H](CC(N)=O)NC(=O)[C@@H]4CCCN4C(=O)[C@H](CCCNC(=N)N)NC(=O)[C@H](CSSC[C@H](NC(=O)[C@@H](N)CC(=O)O)C(=O)N[C@@H](CC(C)C)C(=O)NCC(=O)N[C@@H](Cc4ccc5ccccc5c4)C(=O)N[C@@H](CCSC)C(=O)N[C@@H](CCCNC(=N)N)C(=O)N[C@@H](CCCCN)C(=O)N2)NC(=O)[C@H](CSSC[C@@H](C(=O)N[C@@H](CCCCN)C(=O)N[C@@H](Cc2ccc(O)cc2)C(=O)N[C@H](C(=O)N[C@@H](Cc2ccccc2)C(N)=O)C(C)C)NC(=O)[C@H](Cc2c[nH]c4ccccc24)NC(=O)[C@H](CCCCN)NC(=O)[C@H](Cc2c[nH]cn2)NC(=O)[C@H]([C@@H](C)O)NC(=O)[C@H](CCCNC(=N)N)NC(=O)[C@H](CO)NC3=O)NC(=O)[C@H](CCCCN)NC(=O)[C@H](CC(=O)O)NC(=O)[C@H](CC(N)=O)NC(=O)[C@H](CC(=O)O)NC(=O)[C@@H]2CCCN2C1=O [SEQ ID NO: 128] as the molecule, how does the pIC50 (hNav1.3; [1]) read?
The pIC50 was 7.30.

And the pIC50 (hNav1.5; [2])?
Its pIC50 is 5.21.

And the pIC50 (hNav1.7; [1])?
The pIC50 was 6.96.

What does the source list for C#CCCC(=O)NCCCC[C@@H]1NC(=O)[C@H](CC(=O)O)NC(=O)[C@@H]2CCCN2C(=O)[C@H]([C@@H](C)CC)NC(=O)[C@@H]2CSSC[C@@H]3NC(=O)[C@H](C(C)C)NC(=O)[C@H](CC(C)C)NC(=O)[C@H](CC(N)=O)NC(=O)[C@@H]4CCCN4C(=O)[C@H](CCCNC(=N)N)NC(=O)[C@H](CSSC[C@H](NC(=O)[C@@H](N)CC(=O)O)C(=O)N[C@@H](CC(C)C)C(=O)NCC(=O)N[C@@H](CCC)C(=O)N[C@@H](CC(C)C)C(=O)N[C@@H](CCCNC(=N)N)C(=O)N[C@@H](CCCCN)C(=O)N2)NC(=O)[C@H](CSSC[C@@H](C(=O)N[C@@H](CCCCN)C(=O)N[C@@H](Cc2ccc(O)cc2)C(=O)N[C@H](C(=O)N[C@@H](Cc2ccccc2)C(N)=O)C(C)C)NC(=O)[C@H](Cc2c[nH]c4ccccc24)NC(=O)[C@H](CCCCN)NC(=O)[C@H](Cc2c[nH]cn2)NC(=O)[C@H]([C@@H](C)O)NC(=O)[C@H](CCCNC(=N)N)NC(=O)[C@H](CO)NC3=O)NC(=O)[C@H](CCCCN)NC(=O)[C@H](CC(=O)O)NC1=O [compound 806] (H-DCLG[Nva]LRKCIPDK(Pent4ynoyl)DKCCRPNLVCSRTHKWCKYVF-NH2; disulfide 2-17, 9-23, 16-30)?
pIC50 (hNav1.3; use-dependent block, hNav1.3): 6.41; pIC50 (hNav1.5; [3]): 4.47; pIC50 (hNav1.7; use-dependent block, hNav1.7): 6.54

With CC[C@H](C)[C@@H]1NC(=O)[C@@H]2CSSC[C@@H]3NC(=O)[C@H](C(C)C)NC(=O)[C@H](CC(C)C)NC(=O)[C@H](CC(N)=O)NC(=O)[C@@H]4CCCN4C(=O)[C@H](CCCNC(=N)N)NC(=O)[C@H](CSSC[C@H](NC(=O)[C@@H](N)CC(=O)O)C(=O)N[C@@H](CC(C)C)C(=O)NCC(=O)N[C@@H](Cc4ccccc4)C(=O)N[C@@H](CCSC)C(=O)N[C@@H](CCCNC(=N)N)C(=O)N[C@@H](CCCCN)C(=O)N2)NC(=O)[C@H](CSSC[C@@H](C(=O)N[C@@H](CCCCN)C(=O)N[C@@H](CCCCN)C(=O)N[C@H](C(=O)N[C@@H](Cc2cccc4ccccc24)C(=O)N[C@@H](Cc2c[nH]c4ccccc24)C(N)=O)C(C)C)NC(=O)[C@H](Cc2c[nH]c4ccccc24)NC(=O)[C@H](CCCCN)NC(=O)[C@H](Cc2c[nH]cn2)NC(=O)[C@H]([C@@H](C)O)NC(=O)[C@H](CCCNC(=N)N)NC(=O)[C@H](CO)NC3=O)NC(=O)[C@H](CCCCN)NC(=O)[C@H](CC(=O)O)NC(=O)[C@H](CC(N)=O)NC(=O)[C@H](CC(=O)O)NC(=O)[C@@H]2CCCN2C1=O [compound 99] (H-DCLGFMRKCIPDNDKCCRPNLVCSRTHKWCKKV[1Nal]W-NH2; disulfide 2-17, 9-23, 16-30) as the molecule, how does the pIC50 (hNav1.3; use-dependent block, hNav1.3) read?
Its pIC50 is 6.80.

What about the pIC50 (hNav1.5; [3]) of the same molecule?
Its pIC50 is 5.04.

And the pIC50 (hNav1.7; use-dependent block, hNav1.7)?
Its pIC50 is 6.96.

What does the source list for CC[C@H](C)[C@@H]1NC(=O)[C@@H]2CSSC[C@@H]3NC(=O)[C@H](C(C)C)NC(=O)[C@H](CC(C)C)NC(=O)[C@H](CC(N)=O)NC(=O)[C@@H]4CCCN4C(=O)[C@H](CCCNC(=N)N)NC(=O)[C@H](CSSC[C@H](NC(=O)[C@@H](N)CC(=O)O)C(=O)N[C@@H](CC(C)C)C(=O)NCC(=O)N[C@@H](Cc4cccs4)C(=O)N[C@@H](CC(C)C)C(=O)N[C@@H](CCCNC(=N)N)C(=O)N[C@@H](CCCCN)C(=O)N2)NC(=O)[C@H](CSSC[C@@H](C(=O)N[C@@H](CCCCN)C(=O)N[C@@H](Cc2ccc(O)cc2)C(=O)N[C@H](C(=O)N[C@@H](Cc2ccccc2)C(N)=O)C(C)C)NC(=O)[C@H](Cc2c[nH]c4ccccc24)NC(=O)[C@H](CCCCN)NC(=O)[C@H](Cc2c[nH]cn2)NC(=O)[C@H]([C@@H](C)O)NC(=O)[C@H](CCCNC(=N)N)NC(=O)[C@H](CO)NC3=O)NC(=O)[C@H](CCCCN)NC(=O)[C@H](CC(=O)O)NC(=O)[C@H](CC(N)=O)NC(=O)[C@H](CC(=O)O)NC(=O)[C@@H]2CCCN2C1=O [compound 662]?
pIC50 (hNav1.3; use-dependent protocol, hNav1.3): 7.17; pIC50 (hNav1.5; IonWorks Quattro, use-dependent protocol, hNav1.5, read-out: IWQ Use Nav1.5): < 5.30; pIC50 (hNav1.7; use-dependent protocol, hNav1.7): 7.66
